Test results: the NIST ThermoML archive (doi:10.1021/je050202g)

How the values were obtained:
[1] = cn = amount concentration of the nth substance listed, in mol/dm3; settings: 101.3 kPa, Liquid; for viscosity: Capillary tube (Ostwald / Ubbelohde) method
[2] = wn = mass fraction of the nth substance listed; settings: Wilhelmy Plate method
[3] = Wilhelmy Plate method

C1CNCCN1 [piperazine] + O
Settings | mass density, [1] [kg/m3] | surface tension liquid-gas, [2] [mN/m] | viscosity, [1] [mPa·s]
293.15 K, c1 = 0.623 | 1000.46 | – | 1.26
293.15 K, c1 = 1.006 | 1002.49 | – | 1.52
293.15 K, c1 = 1.49 | 1005.4 | – | 1.87
293.15 K, w1 = 0.043 | – | 71.7 | –
293.15 K, w1 = 0.086 | – | 70.1 | –
293.15 K, w1 = 0.129 | – | 69.3 | –
298.15 K, c1 = 0.623 | 999.37 | – | 1.11
298.15 K, c1 = 1.006 | 1001.3 | – | 1.31
298.15 K, c1 = 1.49 | 1004.11 | – | 1.62
298.15 K, c1 = 1.686 | 1005.39 | – | 1.8
303.15 K, c1 = 0.623 | 997.94 | – | 0.98
303.15 K, c1 = 1.006 | 999.79 | – | 1.15
303.15 K, c1 = 1.49 | 1002.47 | – | 1.4
303.15 K, c1 = 1.686 | 1003.66 | – | 1.56
313.15 K, c1 = 0.623 | 994.25 | – | 0.79
313.15 K, c1 = 1.006 | 996.03 | – | 0.92
313.15 K, c1 = 1.49 | 998.49 | – | 1.09
313.15 K, c1 = 1.686 | 999.49 | – | 1.2
313.15 K, w1 = 0.043 | – | 68.5 | –
313.15 K, w1 = 0.086 | – | 67.8 | –
313.15 K, w1 = 0.129 | – | 67.6 | –
323.15 K, c1 = 0.623 | 989.76 | – | 0.65
323.15 K, c1 = 1.006 | 991.53 | – | 0.75
323.15 K, c1 = 1.49 | 993.86 | – | 0.88
323.15 K, c1 = 1.686 | 994.74 | – | 0.96

O [water]
[3]
Settings | surface tension liquid-gas [mN/m]
293.15 K | 72.7
313.15 K | 69.8

O [water] + C1CNCCN1
[2], w2 = 0
Settings | surface tension liquid-gas [mN/m]
293.15 K | 72.7
313.15 K | 69.8
